Results: ChEMBL document CHEMBL1136175, “Synthesis and antimycobacterial activity of capuramycin analogues. Part 2: acylated derivatives of capuramycin-related compounds” (Bioorg Med Chem Lett, 2003)
In brackets after ≈: the same amount, converted by molar mass.

Legend:
[1] = tested on: Mycolicibacterium smegmatis; experiment: Antimycobacterial activity was determined against Mycobacterium smegmatis SANK75075; format: functional
[2] = biological target: T1, Phospho-N-acetylmuramoyl-pentapeptide-transferase (Escherichia coli K-12, UniProt P0A6W3); experiment: Inhibitory concentration required against Translocase I
T1 sequence (P0A6W3 whole entry): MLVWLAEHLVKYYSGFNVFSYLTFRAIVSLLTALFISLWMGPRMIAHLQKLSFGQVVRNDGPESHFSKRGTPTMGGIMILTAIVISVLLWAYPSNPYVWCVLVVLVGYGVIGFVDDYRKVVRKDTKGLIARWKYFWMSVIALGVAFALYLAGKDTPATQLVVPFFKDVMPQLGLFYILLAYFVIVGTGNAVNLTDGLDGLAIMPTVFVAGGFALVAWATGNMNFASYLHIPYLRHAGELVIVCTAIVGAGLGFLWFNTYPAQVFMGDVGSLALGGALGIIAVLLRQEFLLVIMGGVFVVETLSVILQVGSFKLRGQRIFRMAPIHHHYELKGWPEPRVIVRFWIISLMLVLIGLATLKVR

Mycobacterium avium = experiment: Antimycobacterial activity against Mycobacterium avium NIHJ1605; format: functional
[3] = tested on: Mycobacterium intracellulare; experiment: Antimycobacterial activity against Mycobacterium intracellular ATCC 1954 E-3; format: functional
Mycobacterium kansasii = experiment: Antimycobacterial activity against Mycobacterium kansasii ATCC 12478; format: functional

Row | Structure (SMILES) | MIC [1] [µg/mL] | IC50 [2] [µM] | MIC (Mycobacterium avium) [µg/mL] | MIC [3] [µg/mL] | MIC (Mycobacterium kansasii) [µg/mL]
1 | CCCCCCCCC(=O)O[C@@H]1[C@H](OC)[C@@H]([C@@H](O[C@H]2OC(C(=O)N[C@H]3CCC[C@@H](C)NC3=O)=C[C@H](O)[C@@H]2O)C(N)=O)O[C@H]1n1ccc(=O)[nH]c1=O | 25 (≈ 34.5 µM) | 0.235 |  |  | 
2 | CCCCCCCCCCCCCCCCCCCCCC(=O)O[C@@H]1[C@H](OC)[C@@H]([C@@H](O[C@H]2OC(C(=O)N[C@H]3CCCCNC3=O)=C[C@H](O)[C@@H]2O)C(N)=O)O[C@H]1n1ccc(=O)[nH]c1=O | 100 (≈ 112 µM) |  |  |  | 
3 | CCCCCCCCC(=O)O[C@@H]1[C@H](OC)[C@@H]([C@@H](O[C@H]2OC(C(=O)Nc3ccccc3)=C[C@H](O)[C@@H]2O)C(N)=O)O[C@H]1n1ccc(=O)[nH]c1=O | 12.5 (≈ 18.5 µM) | 1.04 | 0.25 (≈ 0.371 µM) | 1 (≈ 1.48 µM) | 1 (≈ 1.48 µM)
4 | CCCCCCCO[C@@H]1[C@H](OC)[C@@H]([C@@H](O[C@H]2OC(C(=O)N[C@H]3CCC[C@@H](C)NC3=O)=C[C@H](O)[C@@H]2O)C(N)=O)O[C@H]1n1ccc(=O)[nH]c1=O | 100 (≈ 147 µM) | 0.0807 | 32 (≈ 46.9 µM) | 4 (≈ 5.87 µM) | 32 (≈ 46.9 µM)
5 | CCCCCCCCCCCCCCCCC(=O)O[C@@H]1[C@H](OC)[C@@H]([C@@H](O[C@H]2OC(C(=O)N[C@H]3CCC[C@@H](C)NC3=O)=C[C@H](O)[C@@H]2O)C(N)=O)O[C@H]1n1ccc(=O)[nH]c1=O | > 100 |  | 2 (≈ 2.39 µM) | 8 (≈ 9.57 µM) | 4 (≈ 4.78 µM)
6 | CCCCCCCCCCCCCC(=O)O[C@@H]1[C@H](OC)[C@@H]([C@@H](O[C@H]2OC(C(=O)N[C@H]3CCCCNC3=O)=C[C@H](O)[C@@H]2O)C(N)=O)O[C@H]1n1ccc(=O)[nH]c1=O | 1.56 (≈ 2 µM) |  | 2 (≈ 2.56 µM) | 1 (≈ 1.28 µM) | 4 (≈ 5.13 µM)
7 | CCCCCCCCCCCCCCCCCC(=O)O[C@@H]1[C@H](OC)[C@@H]([C@@H](O[C@H]2OC(C(=O)N[C@H]3CCCCNC3=O)=C[C@H](O)[C@@H]2O)C(N)=O)O[C@H]1n1ccc(=O)[nH]c1=O | 50 (≈ 59.8 µM) |  |  |  | 
8 | CC/C=C\C/C=C\C/C=C\CCCCCCCC(=O)O[C@@H]1[C@H](OC)[C@@H]([C@@H](O[C@H]2OC(C(=O)N[C@H]3CCC[C@@H](C)NC3=O)=C[C@H](O)[C@@H]2O)C(N)=O)O[C@H]1n1ccc(=O)[nH]c1=O | 3.13 (≈ 3.71 µM) |  |  |  | 
9 | CCCCCCCCCCCCCCCCCCCC(=O)O[C@@H]1[C@H](OC)[C@@H]([C@@H](O[C@H]2OC(C(=O)N[C@H]3CCCCNC3=O)=C[C@H](O)[C@@H]2O)C(N)=O)O[C@H]1n1ccc(=O)[nH]c1=O | 50 (≈ 57.9 µM) |  |  |  | 
10 | CO[C@H]1[C@@H](OC(=O)C(C)c2ccc([N+](=O)[O-])cc2)[C@H](n2ccc(=O)[nH]c2=O)O[C@@H]1[C@@H](O[C@H]1OC(C(=O)N[C@H]2CCC[C@@H](C)NC2=O)=C[C@H](O)[C@@H]1O)C(N)=O (some centres not stated) | 25 (≈ 32.9 µM) |  |  |  | 
11 | CCCCCCCCCCCCCCCC(=O)O[C@@H]1[C@H](OC)[C@@H]([C@@H](O[C@H]2OC(C(=O)N[C@H]3CCCCNC3=O)=C[C@H](O)[C@@H]2O)C(N)=O)O[C@H]1n1ccc(=O)[nH]c1=O | 1.56 (≈ 1.93 µM) |  | 1 (≈ 1.24 µM) | 2 (≈ 2.48 µM) | 4 (≈ 4.95 µM)
12 | CCCCCCCCCCCC(=O)O[C@@H]1[C@H](OC)[C@@H]([C@@H](O[C@H]2OC(C(=O)N[C@H]3CCCCNC3=O)=C[C@H](O)[C@@H]2O)C(N)=O)O[C@H]1n1ccc(=O)[nH]c1=O | 3.13 (≈ 4.16 µM) |  | < 0.063 | 0.125 (≈ 0.166 µM) | 0.125 (≈ 0.166 µM)
13 | CCCCC/C=C\C/C=C\CCCCCCCC(=O)O[C@@H]1[C@H](OC)[C@@H]([C@@H](O[C@H]2OC(C(=O)N[C@H]3CCC[C@@H](C)NC3=O)=C[C@H](O)[C@@H]2O)C(N)=O)O[C@H]1n1ccc(=O)[nH]c1=O | 6.25 (≈ 7.39 µM) |  |  |  | 
14 | CCCCCCCC/C=C\CCCCCCCCCCCC(=O)O[C@@H]1[C@H](OC)[C@@H]([C@@H](O[C@H]2OC(C(=O)N[C@H]3CCC[C@@H](C)NC3=O)=C[C@H](O)[C@@H]2O)C(N)=O)O[C@H]1n1ccc(=O)[nH]c1=O | > 100 |  |  |  | 
15 | CCCCCCCCCCCCCCCCCCCCCC(=O)O[C@@H]1[C@H](OC)[C@@H]([C@@H](O[C@H]2OC(C(=O)N[C@H]3CCC[C@@H](C)NC3=O)=C[C@H](O)[C@@H]2O)C(N)=O)O[C@H]1n1ccc(=O)[nH]c1=O | > 100 | 16.6 |  |  | 
16 | CCCCCCCCCOC(=O)O[C@@H]1[C@H](OC)[C@@H]([C@@H](O[C@H]2OC(C(=O)N[C@H]3CCC[C@@H](C)NC3=O)=C[C@H](O)[C@@H]2O)C(N)=O)O[C@H]1n1ccc(=O)[nH]c1=O | 12.5 (≈ 16.6 µM) | 1.86 |  |  | 

Row | Structure (SMILES) | MIC [1] [µg/mL] | IC50 [2] [µM] | MIC (Mycobacterium avium) [µg/mL] | MIC [3] [µg/mL] | MIC (Mycobacterium kansasii) [µg/mL]
17 | CCCCCCOC(=O)O[C@@H]1[C@H](OC)[C@@H]([C@@H](O[C@H]2OC(C(=O)N[C@H]3CCC[C@@H](C)NC3=O)=C[C@H](O)[C@@H]2O)C(N)=O)O[C@H]1n1ccc(=O)[nH]c1=O | 50 (≈ 70.3 µM) | 0.183 |  |  | 
18 | CO[C@H]1[C@@H](OC(=O)c2ccccc2)[C@H](n2ccc(=O)[nH]c2=O)O[C@@H]1[C@@H](O[C@H]1OC(C(=O)N[C@H]2CCC[C@@H](C)NC2=O)=C[C@H](O)[C@@H]1O)C(N)=O | 25 (≈ 36.4 µM) |  |  |  | 
19 | CO[C@H]1[C@@H](OC(=O)CC(c2ccccc2)c2ccccc2)[C@H](n2ccc(=O)[nH]c2=O)O[C@@H]1[C@@H](O[C@H]1OC(C(=O)N[C@H]2CCC[C@@H](C)NC2=O)=C[C@H](O)[C@@H]1O)C(N)=O | 25 (≈ 31.6 µM) |  |  |  | 
20 | CCCCCCCCCCCCCCC(=O)O[C@@H]1[C@H](OC)[C@@H]([C@@H](O[C@H]2OC(C(=O)N[C@H]3CCCCNC3=O)=C[C@H](O)[C@@H]2O)C(N)=O)O[C@H]1n1ccc(=O)[nH]c1=O | 3.13 (≈ 3.94 µM) |  | 2 (≈ 2.52 µM) | 1 (≈ 1.26 µM) | 4 (≈ 5.04 µM)
21 | CCCCCCCCCCCCCCCCC(=O)O[C@@H]1[C@H](OC)[C@@H]([C@@H](O[C@H]2OC(C(=O)N[C@H]3CCCCNC3=O)=C[C@H](O)[C@@H]2O)C(N)=O)O[C@H]1n1ccc(=O)[nH]c1=O | 50 (≈ 60.8 µM) |  |  |  | 
22 | CO[C@H]1[C@@H](O)[C@H](n2ccc(=O)[nH]c2=O)O[C@@H]1[C@@H](O[C@H]1OC(C(=O)N[C@H]2CCC[C@@H](C)NC2=O)=C[C@H](O)[C@@H]1O)C(N)=O | 6.25 (≈ 10.7 µM) |  | 8 (≈ 13.7 µM) | 4 (≈ 6.85 µM) | 16 (≈ 27.4 µM)
23 | CCCCCCCCCCCCCCCCCC(=O)O[C@@H]1[C@H](OC)[C@@H]([C@@H](O[C@H]2OC(C(=O)N[C@H]3CCC[C@@H](C)NC3=O)=C[C@H](O)[C@@H]2O)C(N)=O)O[C@H]1n1ccc(=O)[nH]c1=O | > 100 | 9.41 |  |  | 
24 | CCCCCCCCCC(=O)O[C@@H]1[C@H](OC)[C@@H]([C@@H](O[C@H]2OC(C(=O)N[C@H]3CCC[C@@H](C)NC3=O)=C[C@H](O)[C@@H]2O)C(N)=O)O[C@H]1n1ccc(=O)[nH]c1=O | 6.25 (≈ 8.47 µM) |  | < 0.063 | < 0.063 | < 0.063
25 | CCCCCCCCCCC(C)C(=O)O[C@@H]1[C@H](OC)[C@@H]([C@@H](O[C@H]2OC(C(=O)N[C@H]3CCC[C@@H](C)NC3=O)=C[C@H](O)[C@@H]2O)C(N)=O)O[C@H]1n1ccc(=O)[nH]c1=O (some centres not stated) | 25 (≈ 32.1 µM) | 0.769 |  |  | 
26 | CCCCCCCCCCC(C)(C)C(=O)O[C@@H]1[C@H](OC)[C@@H]([C@@H](O[C@H]2OC(C(=O)N[C@H]3CCC[C@@H](C)NC3=O)=C[C@H](O)[C@@H]2O)C(N)=O)O[C@H]1n1ccc(=O)[nH]c1=O | 6.25 (≈ 7.87 µM) | 1.26 |  |  | 
27 | CCCCCCCC/C=C\CCCCCCCC(=O)O[C@@H]1[C@H](OC)[C@@H]([C@@H](O[C@H]2OC(C(=O)N[C@H]3CCC[C@@H](C)NC3=O)=C[C@H](O)[C@@H]2O)C(N)=O)O[C@H]1n1ccc(=O)[nH]c1=O | 6.25 (≈ 7.37 µM) |  |  |  | 
28 | CCCCCCCC/C=C\CCCCCCCCCC(=O)O[C@@H]1[C@H](OC)[C@@H]([C@@H](O[C@H]2OC(C(=O)N[C@H]3CCC[C@@H](C)NC3=O)=C[C@H](O)[C@@H]2O)C(N)=O)O[C@H]1n1ccc(=O)[nH]c1=O | 50 (≈ 57.1 µM) |  |  |  | 
29 | CCCCCCCCCCCCCCCCCCCC(=O)O[C@@H]1[C@H](OC)[C@@H]([C@@H](O[C@H]2OC(C(=O)N[C@H]3CCC[C@@H](C)NC3=O)=C[C@H](O)[C@@H]2O)C(N)=O)O[C@H]1n1ccc(=O)[nH]c1=O | > 100 | 34.2 |  |  | 
30 | NNC(=O)c1ccncc1 [ISONIAZID] |  |  | 1 (≈ 7.29 µM) | 8 (≈ 58.3 µM) | 2 (≈ 14.6 µM)
31 | CO[C@H]1/C=C/O[C@@]2(C)Oc3c(C)c(O)c4c(O)c(c(/C=N/N5CCN(C)CC5)c(O)c4c3C2=O)NC(=O)/C(C)=C\C=C\[C@H](C)[C@H](O)[C@@H](C)[C@@H](O)[C@@H](C)[C@H](OC(C)=O)[C@@H]1C [RIFAMPIN] |  |  | 0.125 (≈ 0.152 µM) | 0.125 (≈ 0.152 µM) | 0.25 (≈ 0.304 µM)
